Reference: patent US11358931B2, “Selective androgen receptor modulators (SARMs) and uses thereof” (priority 2007, dated 2022)
Where two headings read alike, the source gives them in different places.

Experiments:
hAR = hAR (Homo sapiens, UniProt P10275); experiment: cell-based
[1] = Oral bioavailability in animal species; conditions: multiple animal species, including monkeys
[2] = Pharmacokinetics in orchidectomized male rats (plasma, Day 14); assay type: in vivo; conditions: rat, ORX male rats; for AUC: male, po; for Cmax / Tmax: PO
Excerpt: In this assay, two-month old rats were acclimated in a vivarium for one week. After this acclimation period, rats were surgically orchidectomized under isoflurane anesthesia and left untreated for 14 days. After 14 days, animals were sorted into groups such that no statistically significant differences in mean body weights were observed. Rats began receiving treatment 14 days after the day of surgery. Sham-operated and orchidectomized rats, treated with vehicle, served as controls. The different test groups were treated with various doses of Compound 102 (0.03 to 100 mg/kg/day per os (by mouth)). Dosages included 0.03, 0.1, 0.3, 1, 3, 10, 30 and 100 mg/kg/day. Ostarine, a non-steroidal androgenic drug (Evans et al., J Clin Oncology 25: 9119 (2007)) was dosed at dosages similar to other test groups as a comparison. After the 14th dose, venous blood was collected at 0, 1, 2, 4 and 6 hours after dosing. The blood samples were collected in EDTA-containing tubes (Becton Dickinson, Franklin Lakes, N.J.). Approximately 24 hours after the last dose, animals were euthanized and seminal vesicle weights, ventral prostate weights, levator ani weights, preputial gland weights and blood samples were collected on necropsy.
The determination of plasma concentration was done by an LC-MS/MS method. The standard solution of each drug was spiked in blank rat plasma, calibration standards were constructed from 0.0001 μg/mL to 10 μg/mL; and 50 μL of each calibration standard was extracted with 250 μL of acetonitrile containing 10 ng/mL of internal standard in a 96-well plate. Also, 50 μL of plasma sample was extracted with 250 μL of acetonitrile containing internal standard in a 96-well plate.
Peak pharmacokinetic (PK) parameters were calculated and rounded to three decimal places.

hAR, sequence (P10275 whole entry): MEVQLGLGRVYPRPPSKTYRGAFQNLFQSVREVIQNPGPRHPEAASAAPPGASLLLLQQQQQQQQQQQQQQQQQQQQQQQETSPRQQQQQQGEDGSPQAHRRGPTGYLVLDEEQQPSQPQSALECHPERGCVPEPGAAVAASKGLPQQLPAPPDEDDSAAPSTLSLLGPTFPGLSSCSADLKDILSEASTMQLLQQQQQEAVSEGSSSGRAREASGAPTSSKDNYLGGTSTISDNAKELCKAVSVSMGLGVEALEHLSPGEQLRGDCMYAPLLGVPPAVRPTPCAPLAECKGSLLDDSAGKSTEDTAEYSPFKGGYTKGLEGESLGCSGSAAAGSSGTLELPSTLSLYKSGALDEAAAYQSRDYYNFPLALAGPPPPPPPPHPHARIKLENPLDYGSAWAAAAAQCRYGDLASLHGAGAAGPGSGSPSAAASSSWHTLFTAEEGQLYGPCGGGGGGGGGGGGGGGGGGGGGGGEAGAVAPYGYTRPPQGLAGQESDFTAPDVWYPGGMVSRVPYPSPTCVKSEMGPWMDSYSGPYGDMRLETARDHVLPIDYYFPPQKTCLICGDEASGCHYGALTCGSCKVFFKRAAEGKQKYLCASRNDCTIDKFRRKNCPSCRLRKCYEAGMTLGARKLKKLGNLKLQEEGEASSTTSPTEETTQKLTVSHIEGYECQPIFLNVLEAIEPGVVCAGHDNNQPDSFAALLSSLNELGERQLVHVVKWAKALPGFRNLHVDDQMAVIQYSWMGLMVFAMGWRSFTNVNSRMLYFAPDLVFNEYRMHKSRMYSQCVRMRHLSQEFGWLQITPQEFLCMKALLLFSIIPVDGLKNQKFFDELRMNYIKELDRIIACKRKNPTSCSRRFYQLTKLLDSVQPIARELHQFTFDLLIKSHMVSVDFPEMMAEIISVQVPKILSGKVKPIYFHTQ

For `N#Cc1ccc(N2CCC[C@@H]2[C@@H](O)C(F)(F)F)cc1C(F)(F)F` [Compound 102, R,R-4-(2-(1-Hydroxyl-2,2,2-trifluoroethyl)-pyrrolidinyl)-2-trifluoromethyl-benzonitrile], the EC50 (hAR) was 3.1 nM, the Emax (hAR; MDA-MB-453, read-out: efficacy relative to dihydrotestosterone (DHT)) was 59% and the oral bioavailability [1] was “orally bioavailable”. It also gave an AUC ([2]; 0.01 mg/kg, Day 14, 0.01 mg/kg, 0 hr conc. substituted for 24 hr, read-out: AUC24) of 0.015 µg·h/mL, an AUC ([2]; 0.01 mg/kg, Day 14, 0.01 mg/kg, read-out: AUC6) of 0.004 µg·h/mL and an AUC ([2]; 0.03 mg/kg, Day 14, 0.03 mg/kg, 0 hr conc. substituted for 24 hr, read-out: AUC24) of 0.005 µg·h/mL. For the same compound, the AUC ([2]; 0.03 mg/kg, Day 14, 0.03 mg/kg, read-out: AUC6) was 0.002 µg·h/mL, the AUC ([2]; 0.3 mg/kg, Day 14, 0.3 mg/kg, 0 hr conc. substituted for 24 hr, read-out: AUC24) was 0.042 µg·h/mL and the AUC ([2]; 0.3 mg/kg, Day 14, 0.3 mg/kg, read-out: AUC6) was 0.018 µg·h/mL. For the same compound, the AUC ([2]; 1 mg/kg, Day 14, 1 mg/kg, 0 hr conc. substituted for 24 hr, read-out: AUC24) was 0.123 µg·h/mL, the AUC ([2]; 1 mg/kg, Day 14, 1 mg/kg, read-out: AUC6) was 0.063 µg·h/mL and the AUC ([2]; 3 mg/kg, Day 14, 3 mg/kg, 0 hr conc. substituted for 24 hr, read-out: AUC24) was 0.234 µg·h/mL. For the same compound, the AUC ([2]; 3 mg/kg, Day 14, 3 mg/kg, read-out: AUC6) was 0.113 µg·h/mL, the AUC ([2]; 10 mg/kg, Day 14, 10 mg/kg, 0 hr conc. substituted for 24 hr, read-out: AUC24) was 0.764 µg·h/mL and the AUC ([2]; 10 mg/kg, Day 14, 10 mg/kg, read-out: AUC6) was 0.37 µg·h/mL. It also gave an AUC ([2]; 30 mg/kg, Day 14, 30 mg/kg, 0 hr conc. substituted for 24 hr, read-out: AUC24) of 1.88 µg·h/mL, an AUC ([2]; 30 mg/kg, Day 14, 30 mg/kg, read-out: AUC6) of 0.645 µg·h/mL and an AUC ([2]; 100 mg/kg, Day 14, 100 mg/kg, 0 hr conc. substituted for 24 hr, read-out: AUC24) of 4.05 µg·h/mL. For the same compound, the AUC ([2]; 100 mg/kg, Day 14, 100 mg/kg, read-out: AUC6) was 0.998 µg·h/mL, the Cmax ([2]; Day 14, 0.01 mg/kg) was 0.002 µg/mL and the Tmax ([2]; Day 14, 0.01 mg/kg) was 2.8 h. It also gave a Cmax ([2]; Day 14, 0.03 mg/kg) of 0.001 µg/mL, a Tmax ([2]; Day 14, 0.03 mg/kg) of 2 h and a Cmax ([2]; Day 14, 0.3 mg/kg) of 0.012 µg/mL. The Tmax ([2]; Day 14, 0.3 mg/kg) was 1.3 h, the Cmax ([2]; Day 14, 1 mg/kg) was 0.018 µg/mL and the Tmax ([2]; Day 14, 1 mg/kg) was 2.5 h. For the same compound, the Cmax ([2]; Day 14, 3 mg/kg) was 0.036 µg/mL, the Tmax ([2]; Day 14, 3 mg/kg) was 1.3 h and the Cmax ([2]; Day 14, 10 mg/kg) was 0.111 µg/mL. For the same compound, the Tmax ([2]; Day 14, 10 mg/kg) was 1.8 h, the Cmax ([2]; Day 14, 30 mg/kg) was 0.205 µg/mL and the Tmax ([2]; Day 14, 30 mg/kg) was 4.3 h. For the same compound, the Cmax ([2]; Day 14, 100 mg/kg) was 0.321 µg/mL and the Tmax ([2]; Day 14, 100 mg/kg) was 3.5 h.
